Test results published in ChEMBL document CHEMBL6083258, “Advances in synthesis of novel annulated azecines and their unique pharmacological properties” (Eur J Med Chem, 2024).

Assays:
[1] = molecular target: T1, Acetylcholinesterase (Homo sapiens, UniProt P22303); assay: Binding affinity to AChE (unknown origin) assessed as inhibition constant
[2] = molecular target: T1, Acetylcholinesterase; assay: Inhibition of human AChE using acetylthiocholine iodide as substrate after 15 mins by Ellman's method
[3] = molecular target: T2, Amine oxidase [flavin-containing] B (Homo sapiens, UniProt P27338); assay: Inhibition of MAO-B (unknown origin)
T2 sequence (P27338 whole entry): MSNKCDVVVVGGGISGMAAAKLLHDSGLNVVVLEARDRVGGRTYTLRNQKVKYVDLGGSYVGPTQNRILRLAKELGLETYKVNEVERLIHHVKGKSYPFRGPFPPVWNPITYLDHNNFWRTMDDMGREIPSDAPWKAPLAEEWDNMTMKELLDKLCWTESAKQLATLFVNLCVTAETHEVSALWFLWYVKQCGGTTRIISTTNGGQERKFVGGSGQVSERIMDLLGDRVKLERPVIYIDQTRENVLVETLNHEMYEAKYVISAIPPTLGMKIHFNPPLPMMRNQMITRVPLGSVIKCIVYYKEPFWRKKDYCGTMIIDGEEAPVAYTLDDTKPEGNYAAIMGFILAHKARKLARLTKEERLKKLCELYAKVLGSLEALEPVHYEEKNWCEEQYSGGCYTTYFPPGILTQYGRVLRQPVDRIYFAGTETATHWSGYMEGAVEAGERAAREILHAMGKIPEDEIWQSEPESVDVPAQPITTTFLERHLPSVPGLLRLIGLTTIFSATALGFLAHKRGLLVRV

[4] = tested on: HepG2; assay: Antiproliferative activity against human HepG2 cells assessed as reduction in cell viability incubated for 48 hrs by MTT assay; format: functional, cell-based; conditions: HepG2, 48 h
[5] = tested on: MCF7; assay: Antiproliferative activity against human MCF7 cells assessed as reduction in cell viability incubated for 48 hrs by MTT assay; format: functional, cell-based; conditions: MCF7, 48 h
[6] = molecular target: ATP-dependent translocase ABCB1 (Homo sapiens, UniProt P08183); assay: Inhibition of p-glycoprotein (unknown origin)
Chain of ATP-dependent translocase ABCB1 (P08183 whole entry): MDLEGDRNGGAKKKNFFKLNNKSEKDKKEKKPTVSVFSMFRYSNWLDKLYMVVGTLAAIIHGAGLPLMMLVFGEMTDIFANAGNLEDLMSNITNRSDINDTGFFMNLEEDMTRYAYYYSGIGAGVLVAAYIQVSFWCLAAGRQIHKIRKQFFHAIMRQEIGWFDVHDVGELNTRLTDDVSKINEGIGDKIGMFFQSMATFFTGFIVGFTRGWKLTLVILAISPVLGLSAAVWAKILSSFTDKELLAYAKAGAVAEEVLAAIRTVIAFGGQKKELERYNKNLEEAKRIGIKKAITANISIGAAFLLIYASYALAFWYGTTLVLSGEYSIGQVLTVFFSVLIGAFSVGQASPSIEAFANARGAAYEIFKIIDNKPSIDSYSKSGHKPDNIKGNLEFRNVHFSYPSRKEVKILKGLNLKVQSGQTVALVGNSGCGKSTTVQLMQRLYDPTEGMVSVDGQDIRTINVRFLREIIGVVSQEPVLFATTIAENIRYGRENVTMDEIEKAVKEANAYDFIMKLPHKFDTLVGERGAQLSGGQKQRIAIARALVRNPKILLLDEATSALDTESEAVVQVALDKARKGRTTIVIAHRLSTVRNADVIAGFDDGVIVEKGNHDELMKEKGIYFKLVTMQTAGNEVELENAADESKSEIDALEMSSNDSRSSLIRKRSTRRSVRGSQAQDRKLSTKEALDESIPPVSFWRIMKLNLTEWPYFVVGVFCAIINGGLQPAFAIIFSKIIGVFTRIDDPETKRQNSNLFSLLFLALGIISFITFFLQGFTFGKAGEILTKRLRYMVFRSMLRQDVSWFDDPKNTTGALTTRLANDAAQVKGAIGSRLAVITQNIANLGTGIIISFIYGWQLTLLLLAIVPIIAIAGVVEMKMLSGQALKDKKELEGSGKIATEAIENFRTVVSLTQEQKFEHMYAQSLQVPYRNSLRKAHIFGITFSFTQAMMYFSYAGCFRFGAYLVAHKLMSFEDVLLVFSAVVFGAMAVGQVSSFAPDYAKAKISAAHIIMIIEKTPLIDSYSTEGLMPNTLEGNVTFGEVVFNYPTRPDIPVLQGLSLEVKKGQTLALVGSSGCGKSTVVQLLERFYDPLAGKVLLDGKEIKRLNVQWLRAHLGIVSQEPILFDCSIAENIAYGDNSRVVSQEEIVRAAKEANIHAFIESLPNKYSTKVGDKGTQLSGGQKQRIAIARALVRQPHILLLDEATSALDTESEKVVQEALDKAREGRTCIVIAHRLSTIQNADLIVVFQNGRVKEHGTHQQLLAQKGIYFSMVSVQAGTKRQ

T1 sequence (P22303 whole entry): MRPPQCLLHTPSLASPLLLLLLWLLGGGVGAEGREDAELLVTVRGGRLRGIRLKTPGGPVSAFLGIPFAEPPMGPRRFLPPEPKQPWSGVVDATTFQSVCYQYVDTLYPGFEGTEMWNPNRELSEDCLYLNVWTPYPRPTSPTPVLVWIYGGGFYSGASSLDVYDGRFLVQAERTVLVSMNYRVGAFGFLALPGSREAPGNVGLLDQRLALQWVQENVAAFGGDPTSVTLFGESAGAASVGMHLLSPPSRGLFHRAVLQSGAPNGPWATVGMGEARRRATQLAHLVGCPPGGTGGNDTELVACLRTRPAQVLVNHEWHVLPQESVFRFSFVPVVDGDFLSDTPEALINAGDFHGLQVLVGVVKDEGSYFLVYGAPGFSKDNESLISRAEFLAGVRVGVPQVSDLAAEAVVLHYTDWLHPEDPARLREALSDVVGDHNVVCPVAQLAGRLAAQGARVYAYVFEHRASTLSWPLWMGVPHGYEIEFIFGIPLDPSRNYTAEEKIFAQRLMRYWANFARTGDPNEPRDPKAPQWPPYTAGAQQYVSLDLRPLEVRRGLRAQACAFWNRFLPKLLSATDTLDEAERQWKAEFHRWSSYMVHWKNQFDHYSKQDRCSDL

COCC1=C=C(c2ccc(OC)cc2)c2cc(OC)c(OC)cc2CCN(C)/C=C\1C(=O)OC
Ki [1]: 4.9 µM

COC(=O)/C1=C/N(C)CCc2cc(OC)c(OC)cc2C(C)=C=C1c1ccccc1
IC50 [2]: 14 µM | IC50 [3]: 7.1 µM

COC(=O)/C1=C/N(C)CCc2cc(OC)c(OC)cc2C(c2ccc(OC)cc2)=C=C1c1ccccc1
IC50 [4]: > 100 µM | IC50 [5]: > 100 µM | IC50 [6]: 0.0042 µM
